Test results published in article PMC9747113 (Clinical and Translational Science, 2022).
“Also recorded” adds a separate entry of the source.

What was measured:
[1] = Tolerability in fed and fasted states; format: in vivo; conditions: fed vs fasted
BTK [2] = conditions: 2 h after the first dose; cited from earlier work
BTK [3] = conditions: cited from earlier work
[4] = Population PK model of evobrutinib plasma concentration-time data
[5] = between-participant variability, variance estimate
[6] = final population PK model, oral tablet

BPV ALAG, Estimate (RSE %) [4, 5]: 0.156 (40.2) | BPV CL/F, Estimate (RSE %) [4, 5]: 0.0958 (23.0) | BPV D 1 Fasted, Estimate (RSE %) [4, 5]: 1.39 (47.2) | BPV D 1 Fed, Estimate (RSE %) [4, 5]: 1.39 (47.2) | BPV Q/F, Estimate (RSE %) [4, 5]: 1.17 (24.1) | BPV V2/F, Estimate (RSE %) [4, 5]: 0.627 (31.9) | BPV V3/F, Estimate (RSE %) [4, 5]: 1.86 (22.7) | ALAG (absorption lag time) [4, 6]: 0.235 h | CL/F (apparent clearance) [4, 6]: 273 L/h | K a (first-order absorption rate constant) [4, 6]: 0.784 h⁻¹ | V3/F (apparent peripheral volume of distribution) [4, 6]: 446 L | Vd/F ([4]; human, in vivo, po): 61.1 L | Increase of bioavailability with food compared with fasted ([4]; low-fat meal vs fasted): 49%
SMILES: C=CC(=O)N1CCC(CNc2ncnc(N)c2-c2ccc(Oc3ccccc3)cc2)CC1 [evobrutinib, Evobrutinib]
Tolerability in fed and fasted states [1]: equivalent | BTKO in peripheral blood (BTK [2]): high degree of BTKO | BTKO, median at trough (BTK [3]; after 14 days of 25 mg q.d. while fasted): 88% | BTK occupancy at 96 h postdose (BTK [3]; single doses ≥100 mg while fasted): > 50% | maximum BTK occupancy (BTK [3]; within 4 h of single doses ≥200 mg while fasted): > 90% | Effect of ethnicity (Japanese vs non-Japanese) on PK parameters ([4]; covariate test): no difference; also recorded: not a significant covariate
